Measured values reported in patent US20070190188A1, “Controlling Toxicity of Aminoquinoline Compounds” (The University of Mississippi, priority 2005, published 2007).

Assays:
Plasmodium berghei = assay: In vivo antimalarial evaluation in Plasmodium berghei-mouse malaria model; conditions: TAO i.p. 50 mg/kg × 3 once daily alone; for (%) Parasitemia: mean in brackets
Text: One concern with this method of controlling 8-aminoquinoline toxicity is that the inhibition metabolism of the drug may impair its antiparasitic efficacy. […] Thus treatment of the individuals with NPC1161B along with an inhibitor of CYP3A4 should not compromise the therapeutic efficiency of NPC1161B.

Mouse Liver Microsomes = assay: In vitro formation of methemoglobinemic metabolites with mouse liver microsomes and human erythrocytes; assay type: cell-based; conditions: for formation of methemoglobenemic metabolites, Control / formation of methemoglobenemic metabolites, Azithromycin / formation of methemoglobenemic metabolites, Erythromycin / formation of methemoglobenemic metabolites, Microsomes: Mouse Liver Microsomes; for formation of methemoglobenemic metabolites, Control: macrolide alone, no 8-aminoquinoline; for formation of methemoglobenemic metabolites, Azithromycin: 8-aminoquinoline with Azithromycin; for formation of methemoglobenemic metabolites, Erythromycin: 8-aminoquinoline with Erythromycin; for formation of methemoglobenemic metabolites, Microsomes: no macrolide; for % methemoglobin formation, Mouse Liver Microsomes: drug 100 μM, microsomes equivalent to 25 pmoles cytochrome P450, Mean ± S.D. of four
Description: (§1) In one aspect of the present invention, an in vitro assay is developed for evaluation of biotransformation reactions leading to generation of methemoglobinemic metabolites of 8-aminoquinolines. This method uses simultaneous incubation of a test compound with the hepatic microsomes or Baculosomes® (microsomes prepared from insect cells infected with recombinant baculovirus containing a cDNA insert for a specific human P450 isozyme and NADPH-P450 reductase) and human erythrocytes followed by determination of methemoglobin formation. This allows the unstable metabolites generated in situ to react with the human erythrocytes.

[1] = tested on: pooled human liver microsomes; assay: In vitro formation of methemoglobinemic metabolites with pooled human liver microsomes and human erythrocytes; assay type: cell-based; conditions: for formation of methemoglobenemic metabolites, Control: macrolide alone, no 8-aminoquinoline
Description: as §1

CYP 3A4 = target: T1, CYP 3A4 (Homo sapiens, UniProt P08684); assay: Methemoglobinemic metabolite formation with Baculosomes, CYP 3A4; assay type: cell-based
T1 construct: purchased; host or cells: insect cells infected with recombinant baculovirus
T1 sequence (P08684 2-503 limits assumed): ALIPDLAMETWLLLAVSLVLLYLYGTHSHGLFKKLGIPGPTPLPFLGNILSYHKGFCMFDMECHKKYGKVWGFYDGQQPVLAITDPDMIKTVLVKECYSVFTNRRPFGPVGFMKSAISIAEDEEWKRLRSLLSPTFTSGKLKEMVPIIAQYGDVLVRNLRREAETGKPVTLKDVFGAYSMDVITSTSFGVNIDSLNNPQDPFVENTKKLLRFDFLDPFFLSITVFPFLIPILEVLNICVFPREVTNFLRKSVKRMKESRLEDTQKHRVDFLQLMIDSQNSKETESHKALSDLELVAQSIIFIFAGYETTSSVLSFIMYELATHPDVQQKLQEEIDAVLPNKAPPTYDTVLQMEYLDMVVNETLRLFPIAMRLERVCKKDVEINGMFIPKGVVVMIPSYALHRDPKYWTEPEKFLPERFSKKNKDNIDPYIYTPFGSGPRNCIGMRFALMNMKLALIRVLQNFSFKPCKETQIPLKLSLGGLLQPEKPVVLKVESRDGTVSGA
Description: as §1

CYP 2E1 = target: T2, CYP 2E1 (Homo sapiens, UniProt P05181); assay: Methemoglobinemic metabolite formation with Baculosomes, CYP 2E1; assay type: cell-based; conditions: mean ± S.D. of four
T2 construct: purchased; host or cells: insect cells infected with recombinant baculovirus
T2 sequence (P05181 whole entry): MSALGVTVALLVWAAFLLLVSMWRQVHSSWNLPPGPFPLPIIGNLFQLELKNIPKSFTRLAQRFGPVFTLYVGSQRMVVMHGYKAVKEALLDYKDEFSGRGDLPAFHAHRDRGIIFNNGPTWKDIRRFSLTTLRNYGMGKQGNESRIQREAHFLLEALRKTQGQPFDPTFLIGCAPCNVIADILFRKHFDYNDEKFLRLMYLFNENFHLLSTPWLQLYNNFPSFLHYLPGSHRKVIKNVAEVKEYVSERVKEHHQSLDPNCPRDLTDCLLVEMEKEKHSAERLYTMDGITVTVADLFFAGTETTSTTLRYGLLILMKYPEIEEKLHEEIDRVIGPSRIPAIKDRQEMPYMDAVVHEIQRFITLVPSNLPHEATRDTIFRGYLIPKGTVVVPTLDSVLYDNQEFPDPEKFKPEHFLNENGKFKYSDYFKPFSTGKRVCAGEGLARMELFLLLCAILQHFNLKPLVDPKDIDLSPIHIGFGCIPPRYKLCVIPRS
Description: (§2) This method uses simultaneous incubation of a test compound with the hepatic microsomes or Baculosomes® (microsomes prepared from insect cells infected with recombinant baculovirus containing a cDNA insert for a specific human P450 isozyme and NADPH-P450 reductase) and human erythrocytes followed by determination of methemoglobin formation. This allows the unstable metabolites generated in situ to react with the human erythrocytes.

CYP 2C8 = target: T3, CYP 2C8 (Homo sapiens, UniProt P10632); assay: Methemoglobinemic metabolite formation with Baculosomes, CYP 2C8; assay type: cell-based; conditions: mean ± S.D. of four
T3 construct: purchased; host or cells: insect cells infected with recombinant baculovirus
T3 sequence (P10632 1-490): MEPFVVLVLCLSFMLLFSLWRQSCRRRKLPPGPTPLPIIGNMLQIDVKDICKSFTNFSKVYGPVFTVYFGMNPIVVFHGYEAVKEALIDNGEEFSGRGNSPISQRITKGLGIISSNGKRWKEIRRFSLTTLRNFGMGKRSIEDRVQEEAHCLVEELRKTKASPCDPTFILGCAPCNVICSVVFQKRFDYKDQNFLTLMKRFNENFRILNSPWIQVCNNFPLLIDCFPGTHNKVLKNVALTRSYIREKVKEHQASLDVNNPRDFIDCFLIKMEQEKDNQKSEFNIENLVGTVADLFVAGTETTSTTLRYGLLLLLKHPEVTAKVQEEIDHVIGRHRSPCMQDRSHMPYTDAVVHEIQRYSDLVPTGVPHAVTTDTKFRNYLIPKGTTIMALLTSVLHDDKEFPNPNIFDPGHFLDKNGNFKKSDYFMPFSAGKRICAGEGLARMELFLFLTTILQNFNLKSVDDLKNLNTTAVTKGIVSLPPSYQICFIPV
Description: as §1

CPY 2B6 = target: T4, CPY 2B6 (Homo sapiens, UniProt P20813); assay: Methemoglobinemic metabolite formation with Baculosomes, CYP 2B6; assay type: cell-based; conditions: mean ± S.D. of four
T4 construct: purchased; host or cells: insect cells infected with recombinant baculovirus
T4 sequence (P20813 1-491): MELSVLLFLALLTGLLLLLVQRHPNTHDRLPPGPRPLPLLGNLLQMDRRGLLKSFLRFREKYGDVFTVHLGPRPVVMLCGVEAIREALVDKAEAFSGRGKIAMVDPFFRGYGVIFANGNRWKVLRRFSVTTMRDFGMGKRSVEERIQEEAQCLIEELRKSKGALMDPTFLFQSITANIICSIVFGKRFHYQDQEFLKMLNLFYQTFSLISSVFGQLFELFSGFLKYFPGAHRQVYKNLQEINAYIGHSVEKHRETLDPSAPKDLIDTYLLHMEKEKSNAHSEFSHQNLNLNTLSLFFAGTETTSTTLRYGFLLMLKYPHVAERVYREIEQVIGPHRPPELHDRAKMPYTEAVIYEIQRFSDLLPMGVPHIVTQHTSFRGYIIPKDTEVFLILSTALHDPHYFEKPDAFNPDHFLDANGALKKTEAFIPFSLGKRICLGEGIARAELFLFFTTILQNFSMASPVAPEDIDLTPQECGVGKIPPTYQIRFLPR
Description: as §2

CYP 2C19 = target: T5, CYP 2C19 (Homo sapiens, UniProt P33261); assay: Methemoglobinemic metabolite formation with Baculosomes, CYP 2C19; assay type: cell-based; conditions: mean ± S.D. of four
T5 construct: purchased; host or cells: insect cells infected with recombinant baculovirus
T5 sequence (P33261 whole entry): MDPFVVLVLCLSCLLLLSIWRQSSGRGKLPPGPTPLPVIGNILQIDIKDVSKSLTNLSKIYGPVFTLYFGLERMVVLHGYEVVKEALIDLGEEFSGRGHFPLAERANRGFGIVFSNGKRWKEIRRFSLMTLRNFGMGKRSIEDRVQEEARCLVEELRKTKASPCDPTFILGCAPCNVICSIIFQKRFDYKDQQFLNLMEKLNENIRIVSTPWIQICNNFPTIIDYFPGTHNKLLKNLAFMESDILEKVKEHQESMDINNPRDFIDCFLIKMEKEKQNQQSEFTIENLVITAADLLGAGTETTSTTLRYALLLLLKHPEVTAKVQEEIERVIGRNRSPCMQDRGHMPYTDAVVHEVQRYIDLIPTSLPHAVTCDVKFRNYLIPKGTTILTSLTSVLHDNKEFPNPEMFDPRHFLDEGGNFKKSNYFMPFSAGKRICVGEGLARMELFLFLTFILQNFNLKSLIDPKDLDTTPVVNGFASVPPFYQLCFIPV
Description: as §2

CYP 2D6 = target: T6, CYP 2D6 (Homo sapiens, UniProt P10635); assay: Methemoglobinemic metabolite formation with Baculosomes, CYP 2D6; assay type: cell-based; conditions: mean ± S.D. of four
T6 construct: purchased; host or cells: insect cells infected with recombinant baculovirus
T6 sequence (P10635 whole entry): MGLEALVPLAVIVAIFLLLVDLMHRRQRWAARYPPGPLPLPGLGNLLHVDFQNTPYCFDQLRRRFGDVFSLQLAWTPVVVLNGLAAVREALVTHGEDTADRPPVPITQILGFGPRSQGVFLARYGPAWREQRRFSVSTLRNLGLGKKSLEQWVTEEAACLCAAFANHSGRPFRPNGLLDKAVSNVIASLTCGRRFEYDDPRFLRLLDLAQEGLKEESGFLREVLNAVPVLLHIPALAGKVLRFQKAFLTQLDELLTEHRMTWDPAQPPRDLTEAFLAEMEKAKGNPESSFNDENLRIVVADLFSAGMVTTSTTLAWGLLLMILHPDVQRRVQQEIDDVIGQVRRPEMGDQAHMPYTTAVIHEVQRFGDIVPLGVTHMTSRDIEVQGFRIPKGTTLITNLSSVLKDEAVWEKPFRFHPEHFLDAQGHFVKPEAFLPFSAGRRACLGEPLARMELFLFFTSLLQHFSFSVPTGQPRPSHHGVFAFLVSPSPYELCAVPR
Description: as §2

human erythrocytes = assay: In vitro methemoglobin formation, human erythrocytes, control without microsomes; assay type: cell-based; conditions: for % methemoglobin formed, Supersomes None: no Baculosomes, mean ± S.D. of four; for % methemoglobin formation, Control: no microsomes, drug 100 μM, Mean ± S.D. of four observations
Description: as §1

CYP 2A6 = target: T7, CYP 2A6 (Homo sapiens, UniProt P11509); assay: Methemoglobinemic metabolite formation with Baculosomes, CYP 2A6; assay type: cell-based; conditions: mean ± S.D. of four
T7 construct: purchased; host or cells: insect cells infected with recombinant baculovirus
T7 sequence (P11509 1-494): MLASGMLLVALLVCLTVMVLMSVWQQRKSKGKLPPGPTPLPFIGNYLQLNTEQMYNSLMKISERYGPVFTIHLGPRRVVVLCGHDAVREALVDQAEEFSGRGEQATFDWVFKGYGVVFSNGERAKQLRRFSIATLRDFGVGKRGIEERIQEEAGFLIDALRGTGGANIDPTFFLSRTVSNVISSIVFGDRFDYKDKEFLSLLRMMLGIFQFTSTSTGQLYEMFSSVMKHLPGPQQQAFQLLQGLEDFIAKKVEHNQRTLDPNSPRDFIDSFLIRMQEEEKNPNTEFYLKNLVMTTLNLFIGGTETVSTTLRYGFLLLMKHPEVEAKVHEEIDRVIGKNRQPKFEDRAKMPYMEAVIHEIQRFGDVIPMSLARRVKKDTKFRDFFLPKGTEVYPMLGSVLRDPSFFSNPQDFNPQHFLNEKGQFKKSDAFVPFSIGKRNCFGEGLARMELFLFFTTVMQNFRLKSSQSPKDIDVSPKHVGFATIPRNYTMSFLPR
Description: as §2

CYP 2C9 = target: T8, CYP 2C9 (Homo sapiens, UniProt P11712); assay: Methemoglobinemic metabolite formation with Baculosomes, CYP 2C9; assay type: cell-based; conditions: mean ± S.D. of four
T8 construct: purchased; host or cells: insect cells infected with recombinant baculovirus
T8 sequence (P11712 whole entry): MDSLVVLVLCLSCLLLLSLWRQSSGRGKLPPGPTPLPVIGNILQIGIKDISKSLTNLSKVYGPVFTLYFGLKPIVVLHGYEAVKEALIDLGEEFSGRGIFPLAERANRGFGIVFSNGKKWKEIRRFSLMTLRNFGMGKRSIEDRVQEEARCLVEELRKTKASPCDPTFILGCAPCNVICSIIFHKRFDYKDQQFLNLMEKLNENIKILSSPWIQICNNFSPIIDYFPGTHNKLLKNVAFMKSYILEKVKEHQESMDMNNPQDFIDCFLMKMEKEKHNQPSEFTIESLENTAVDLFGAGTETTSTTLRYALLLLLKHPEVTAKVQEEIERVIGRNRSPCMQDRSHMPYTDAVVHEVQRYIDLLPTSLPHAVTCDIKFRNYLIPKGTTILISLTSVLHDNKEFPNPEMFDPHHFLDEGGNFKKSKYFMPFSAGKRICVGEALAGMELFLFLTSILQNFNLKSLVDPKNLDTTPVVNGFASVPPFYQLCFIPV
Description: as §2

CYP 1A2 = target: T9, CYP 1A2 (Homo sapiens, UniProt P05177); assay: Methemoglobinemic metabolite formation with Baculosomes, CYP 1A2; assay type: cell-based; conditions: mean ± S.D. of four
T9 construct: purchased; host or cells: insect cells infected with recombinant baculovirus
T9 sequence (P05177 2-516 limits assumed): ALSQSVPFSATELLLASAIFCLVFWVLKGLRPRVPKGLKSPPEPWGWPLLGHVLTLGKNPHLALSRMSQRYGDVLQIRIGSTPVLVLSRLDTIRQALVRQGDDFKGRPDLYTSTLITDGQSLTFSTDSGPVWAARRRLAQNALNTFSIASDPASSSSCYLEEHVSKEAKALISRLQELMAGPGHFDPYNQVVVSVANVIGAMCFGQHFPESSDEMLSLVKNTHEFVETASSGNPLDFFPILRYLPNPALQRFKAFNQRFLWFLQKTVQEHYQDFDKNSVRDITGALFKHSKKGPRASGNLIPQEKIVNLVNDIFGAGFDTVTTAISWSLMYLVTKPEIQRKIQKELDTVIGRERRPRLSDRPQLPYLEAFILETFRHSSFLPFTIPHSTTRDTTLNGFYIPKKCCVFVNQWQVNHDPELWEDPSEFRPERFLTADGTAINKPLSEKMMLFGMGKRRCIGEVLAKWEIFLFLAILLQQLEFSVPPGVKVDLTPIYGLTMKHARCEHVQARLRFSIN
Description: as §2

CO[C@H]1C[C@H](O[C@H]2[C@H](C)[C@@H](O[C@@H]3O[C@H](C)C[C@H](N(C)C)[C@H]3OC(C)=O)[C@@H](C)C[C@@]3(CO3)C(=O)[C@H](C)[C@@H](OC(C)=O)[C@@H](C)[C@@H](C)OC(=O)[C@@H]2C)O[C@@H](C)[C@@H]1OC(C)=O [Troleandomycin, troleandomycin, reference compound]
MST (Plasmodium berghei): 15 days
(%) Parasitemia (Plasmodium berghei; day 7 p.i.): 13.3/18.3/25.5/16.5/13.1 (17.3) %
(%) Parasitemia (Plasmodium berghei; day 10 p.i.): 22.7/34.5/32.0/32.1/24.3 (29.1) %
(%) Parasitemia (Plasmodium berghei; day 14 p.i.): 31.5/41.5/28.5/49.3/49.3 (40.0) %
deaths (Plasmodium berghei; number of deaths/day): 5/15

CC[C@H]1OC(=O)[C@H](C)[C@@H](O[C@H]2C[C@@](C)(OC)[C@@H](O)[C@H](C)O2)[C@H](C)[C@@H](O[C@@H]2O[C@H](C)C[C@H](N(C)C)[C@H]2O)[C@](C)(O)C[C@@H](C)C(=O)[C@H](C)[C@@H](O)[C@]1(C)O [Erythromycin, erythromycin, reference compound]
formation of methemoglobenemic metabolites, Control (Mouse Liver Microsomes): 6.230 ± 1.009
formation of methemoglobenemic metabolites, Control ([1]; pooled human Liver Microsomes): 0

COc1cc(N[C@@H](C)CCCN)c2nccc(C)c2c1Oc1ccc(Cl)c(Cl)c1 [NPC1161A]
% methemoglobin formed, Cimetidine (CYP 3A4; 3A4 Baculosomes, 8-aminoquinoline 100 μM with Cimetidine 100 μM): 11.905 ± 1.420%
% methemoglobin formed, Erythromycin (CYP 3A4; 3A4 Baculosomes, 8-aminoquinoline 100 μM with Erythromycin 100 μM): 15.288 ± 2.359%
% methemoglobin formed, Ketoconazole (CYP 3A4; 3A4 Baculosomes, 8-aminoquinoline 100 μM with Ketoconazole 100 μM): 19.010 ± 0.870%
% methemoglobin formed, Troleandomycin (CYP 3A4; 3A4 Baculosomes, 8-aminoquinoline 100 μM with Troleandomycin 100 μM): 16.743 ± 1.401%
% methemoglobin formed, inhibitor None (CYP 3A4; 3A4 Baculosomes, 8-aminoquinoline 100 μM, no inhibitor): 20.925 ± 0.502%
% methemoglobin formed, CYP 3A4 (CYP 3A4; Baculosomes, mean ± S.D. of four): 15.320 ± 0.504%
methemoglobin toxicity generated by CYP 3A4, comparison among the three 8-aminoquinolines (CYP 3A4; FIG. 5): almost similar methemoglobin toxicity
% methemoglobin formed, CYP 2E1 (CYP 2E1): 8.703 ± 0.956%
% methemoglobin formed, CYP 2C8 (CYP 2C8): 1.893 ± 0.275%
% methemoglobin formed, CPY 2B6 (CPY 2B6): 5.465 ± 0.625%
formation of methemoglobenemic metabolites, Azithromycin (Mouse Liver Microsomes): 10.850 ± 2.134
formation of methemoglobenemic metabolites, Erythromycin (Mouse Liver Microsomes): 9.375 ± 0.686
formation of methemoglobenemic metabolites, Microsomes (Mouse Liver Microsomes): 17.790 ± 1.460
% methemoglobin formation, Mouse Liver Microsomes (Mouse Liver Microsomes): 17.790 ± 1.460%
% methemoglobin formed, CYP 2C19 (CYP 2C19): 1.733 ± 0.327%
% methemoglobin formed, CYP 2D6 (CYP 2D6): 17.200 ± 1.088%
% methemoglobin formed, Supersomes None (human erythrocytes): 2.138 ± 0.624%
% methemoglobin formation, Control (human erythrocytes): 2.138 ± 0.624%
% methemoglobin formed, CYP 2A6 (CYP 2A6): 2.775 ± 0.175%
% methemoglobin formed, CYP 2C9 (CYP 2C9): 0.070 ± 0.130%
% methemoglobin formed, CYP 1A2 (CYP 1A2): 2.060 ± 0.185%
% methemoglobin formation, Pooled Human liver Microsomes ([1]; drug 100 μM, microsomes equivalent to 25 pmoles cytochrome P450, Mean ± S.D. of four): 12.510 ± 1.890%
formation of methemoglobenemic metabolites, Azithromycin ([1]; pooled human Liver Microsomes, 8-aminoquinoline with Azithromycin): 10.595 ± 0.842
formation of methemoglobenemic metabolites, Erythromycin ([1]; pooled human Liver Microsomes, 8-aminoquinoline with Erythromycin): 6.720 ± 1.011
formation of methemoglobenemic metabolites, Microsomes ([1]; pooled human Liver Microsomes, no macrolide): 12.860 ± 1.994

COc1cc(NC(C)CCCN)c2ncccc2c1 (stereo not shown) [Primaquine, primaquine, reference compound]
formation of methemoglobenemic metabolites, Azithromycin (Mouse Liver Microsomes): 11.800 ± 2.862
formation of methemoglobenemic metabolites, Erythromycin (Mouse Liver Microsomes): 23.770 ± 5.826
formation of methemoglobenemic metabolites, Microsomes (Mouse Liver Microsomes): 36.660 ± 2.612
% methemoglobin formation, Mouse Liver Microsomes (Mouse Liver Microsomes): 36.660 ± 2.612%
% methemoglobin formed, Supersomes None (human erythrocytes): 1.465 ± 0.183%
% methemoglobin formation, Control (human erythrocytes): 1.465 ± 0.414%

CC[C@H]1OC(=O)[C@H](C)[C@@H](O[C@H]2C[C@@](C)(OC)[C@@H](O)[C@H](C)O2)[C@H](C)[C@@H](O[C@@H]2O[C@H](C)C[C@H](N(C)C)[C@H]2O)[C@](C)(O)C[C@@H](C)CN(C)[C@H](C)[C@@H](O)[C@]1(C)O [Azithromycin, reference compound]
formation of methemoglobenemic metabolites, Control (Mouse Liver Microsomes): 6.598 ± 0.505
formation of methemoglobenemic metabolites, Control ([1]; pooled human Liver Microsomes): 0
